For the experiment, the system named is line PL1214418M2-73009. Kind of experiment: Mesotrione trait tolerance trial. Format: in vivo, rice. On the procedure:
Two trials were conducted to measure recovery of tolerance to both ACCase and HPPD herbicides in the new line PL1214418M2-73009. Recovery of tolerance in the line combining the two traits will illustrate that the traits are heritable and can be used to produce new varieties and hybrids carrying herbicide resistance. These trials are important as often times it is difficult to recover complex QTLs for quantitative traits or in some cases a traits response is dependent upon the genetic background. In the first trail the lines resistance to mesotrione (HPPD herbicide) was evaluated by planting line PL1214418M2-73009, the HPPD resistant line ML0831266-03093 and wild-type rice line P1003 and R0146 in plots (5 feet×10 feet). […]
During the breeding process to develop new lines (PL1214418M2-80048 and PL1214418M2-73009) with resistance/tolerance to HPPD and ACCase herbicides, two other lines were also investigated to determine the contribution of the HPPD tolerance mutation and the HPPD tolerance native gene. […] The tolerance effect of each gene was measured by growing the lines in single rows including the newly developed line PL1214418M2-73009 that carries both the HPPD tolerance from the mutation and the non-induced tolerance, the HPPD tolerant line ML0831266-0309, and the non-induced parent line P1003. […]

Data on one molecule can be found in patent US9994862B2, “Rice resistant to HPPD and ACCase inhibiting herbicides” (priority 2011, dated 2018).

“Also recorded” adds a separate entry of the source.

Consider `CS(=O)(=O)c1ccc(C(=O)C2C(=O)CCCC2=O)c([N+](=O)[O-])c1` [mesotrione], for which the “tolerance to mesotrione compared with the original HPPD tolerant line ML0831266-03093” value (0.5x to 4x of the labeled rate 210 gmai/ha) was “equivalent tolerance; also recorded: the same response”. In addition, the tolerance to mesotrione result (in vivo) is recorded as “tolerance”.
